The target of one test is S31N mutant of M2 (A/M2) (Influenza A virus, UniProt P0DOF5, S31N). The test is classed as biochemical. The note with it: 100 µM.
Test [1] deals with M2-S31N-expressing A/WSN/33. It is filed as cell-based, influenza A virus. Particulars: read-out: A/WSN/33 (S31N) EC50.

The record followed here is PMC4286326 (Journal of the American Chemical Society, 2014).

The structures appear in SMILES notation. “And” between values parts separate entries of the source, which are not always exact repeats. Equal values may be shown once.

Consider `Brc1ccc(CNC23CC4CC(CC(C4)C2)C3)s1` [Compound 11, N-[(5-bromothiophen-2-yl)methyl]adamantan-1-amine], for which, at S31N mutant of M2 (A/M2), the “% S31N inhibition” value was 76% and 76/N.T. %. In addition, the EC50 in test [1] amounted to 1.8 µM.
Regarding `NC12CC3CC(CC(C3)C1)C2` [Compound 1, amantadine, reference compound], the “% S31N inhibition” value on S31N mutant of M2 (A/M2) is given as 36%. For the same compound, in test [1], the EC50 was found to be 22.5 µM.
